Data from paper PMC12054364, “Structure of the Fab fragment of a humanized 5E5 antibody to a cancer-specific Tn-MUC1 epitope” (Acta Crystallographica Section D: Structural Biology, 2025).
Ends that are not written are not given here. * marks the point of attachment. αGalNAc = CC(=O)N[C@@H]1[C@@H](O)[C@@H](O)[C@@H](CO)O[C@@H]1*

Key:
1104 Fab = assay: SPR negative control: glycopeptides over immobilized irrelevant 1104 Fab; type: binding; conditions: amine-coupled Fab 1104 (∼10 000 RU), peptide 6.25-100 µM, HBS-EP pH 7.4, 25°C
Protocol: (§1) The binding kinetics of the h-5E5 Fab to doubly glycosylated Tn-MUC1 peptides were studied by surface plasmon resonance (SPR) using a Biacore T200 instrument (GE Healthcare). All experiments were performed at 25°C with HBS-EP (10 mM HEPES, 150 mM NaCl, 3 mM EDTA, 0.005% Tween 20 pH 7.4) as the running buffer. The purified h-5E5 Fab and an irrelevant 1104 Fab were immobilized [∼10 000 resonance units (RUs) each] on a Series S Sensor Chip CM7 (Cytiva) using an amine-coupling kit (Cytiva) in 10 mM acetate buffer pH 4.0 (Cytiva). Serial dilutions of doubly glycosylated Tn-MUC1 peptides in HBS-EP buffer were injected at a flow rate of 20 µl min^−1 over flow cells containing immobilized h-5E5 Fab and the 1104 Fab (as a negative control). The reference flow cell was blocked with ethanolamine. The association time was set to 30 s and the dissociation time to 60 s. After each run, the sensor chip was regenerated with HBS-EP buffer. The concentrations of the analytes injected were 6.25, 12.5, 25, 50 and 100 µM. […] Reference flow cell subtracted sensorgrams were analyzed with BIAevaluation Software v.3.2 (Cytiva) and affinities were determined by steady-state analysis from three experimental replicates. PAPGS*T*AP binding to amine-coupled 5E5 mAb (∼25 000 RUs) was determined under the same conditions described for the Fab.

h-5E5 mAb = assay: SPR binding of PAPGS*T*AP to immobilized h-5E5 mAb; design: species or system humanized; conditions: amine-coupled mAb (∼25 000 RU), same conditions as for the Fab, steady-state
Protocol: as §1

h-5E5 Fab = assay: SPR binding of doubly glycosylated Tn-MUC1 peptides to immobilized h-5E5 Fab; design: species or system humanized
Protocol: The binding kinetics of the h-5E5 Fab to doubly glycosylated Tn-MUC1 peptides were studied by surface plasmon resonance (SPR) using a Biacore T200 instrument (GE Healthcare). All experiments were performed at 25°C with HBS-EP (10 mM HEPES, 150 mM NaCl, 3 mM EDTA, 0.005% Tween 20 pH 7.4) as the running buffer. The purified h-5E5 Fab and an irrelevant 1104 Fab were immobilized [∼10 000 resonance units (RUs) each] on a Series S Sensor Chip CM7 (Cytiva) using an amine-coupling kit (Cytiva) in 10 mM acetate buffer pH 4.0 (Cytiva). Serial dilutions of doubly glycosylated Tn-MUC1 peptides in HBS-EP buffer were injected at a flow rate of 20 µl min^−1 over flow cells containing immobilized h-5E5 Fab and the 1104 Fab (as a negative control). The reference flow cell was blocked with ethanolamine. The association time was set to 30 s and the dissociation time to 60 s. After each run, the sensor chip was regenerated with HBS-EP buffer. The concentrations of the analytes injected were 6.25, 12.5, 25, 50 and 100 µM. The analytes were two doubly glycosylated Tn-MUC1 peptides, PAPGS*T*AP and APGS*T*AP, where * represents GalNAc. Reference flow cell subtracted sensorgrams were analyzed with BIAevaluation Software v.3.2 (Cytiva) and affinities were determined by steady-state analysis from three experimental replicates. PAPGS*T*AP binding to amine-coupled 5E5 mAb (∼25 000 RUs) was determined under the same conditions described for the Fab.

[1] = target: humanized 5E5 monoclonal antibody (h-5E5 mAb) (humanized from mouse | human) (UniProt P01834); assay: SPR; 5E5 mAb amine-coupled (~25 000 RU); PAPGS*T*AP flowed; same conditions as for the Fab (25°C, HBS-EP); steady-state analysis
[2] = target: Fab fragment of the humanized 5E5 antibody (h-5E5 Fab) (humanized from mouse | human) (UniProt P01834); assay: SPR; Biacore T200; h-5E5 Fab amine-coupled (~10 000 RU) on a CM7 chip; glycopeptides flowed at 6.25-100 µM, 20 µl/min; 25°C; HBS-EP (10 mM HEPES, 150 mM NaCl, 3 mM EDTA, 0.005% Tween 20 pH 7.4); steady-state analysis, three replicates
[3] = immobilized h-5E5 Fab, HBS-EP pH 7.4, 25°C

| Kd (h-5E5 mAb) | Kd (h-5E5 Fab; Biacore T200, 25°C, HBS-EP (10 mM HEPES, 150 mM NaCl, 3 mM EDTA, 0.005% Tween 20 pH 7.4), Fab amine-coupled ∼10 000 RU on CM7 chip, peptide 6.25-100 µM, 20 µl/min, association 30 s, dissociation 60 s, steady-state analysis, three experimental replicates) | observed Rmax (h-5E5 Fab; [3]) | observed Rmax as % of the theoretical Rmax (h-5E5 Fab; [3]) | Kd [1] | Kd [2] | Molecule | binding to control surface (1104 Fab) |
| --- | --- | --- | --- | --- | --- | --- | --- |
| 43.9 µM | 40.7 ± 0.1 µM | 165 RU | 70% |  |  | PAPGS*T*AP [doubly glycosylated Tn-MUC1 peptide, where * represents GalNAc] | Neither glycopeptide bound to the control surface |
|  |  |  |  | 43.9 µM | 40.7 µM | PAPGS(αGalNAc)T(αGalNAc)AP [doubly glycosylated Tn-MUC1 peptide PAPGS*T*AP] |  |
|  |  |  |  |  | 60.9 µM | APGS(αGalNAc)T(αGalNAc)AP [doubly glycosylated Tn-MUC1 peptide APGS*T*AP] |  |
